In US6096314A, “Peptides and pharmaceutical compositions comprising them” (Yeda Research and Development Co. Ltd., priority 1994, dated 2000):

Tests used:
[1] = tested on: anti-idiotypic T cells; assay: Treatment with p277 in IFA, proliferation of spleen cells to C9VDJ peptide (FIG. 9); type: in vivo; settings: NOD female mice, 12 weeks old, treated in IFA subcutaneously; 2 or 5 weeks after treatment
Description: FIGS. 4A and B Spontaneous anti-idiotypic responses in naive female (FIG. 4A) and male (FIG. 4B) NOD mice. T cell responses to hsp60 (idiotype) and to the C9 clone (anti-idiotype) were measured in naive female and male NOD mice. Ten female and 10 male NOD mice were sacrificed at 4, 6, 8, 10, 13 and 21 week of age and their spleens were taken for a T cell proliferative assay. Spleen cells were tested at 200,000 cells/0.2 cc in microtiter wells for proliferative responses to either human hsp60 (5 μg/ml) or the C9 clone (20,000 cells/well irradiated at 5000 rad). The a proliferative response was measured by adding 3H-thymidine to the culture for the last 16 h of a 72 h stimulation. The incorporated 3H-thymidine was measured on a β-counter and the stimulation index (SI) was calculated as cpm incorporation in the presence of antigen/cpm incorporation in the absence of antigen. Individual mice were tested separately and the mean±SD for each time point was calculated.
NOD female mice, 12 weeks old, were immunized with p277 or p278 in IFA, […] per mouse subcutaneously, or left untreated 10 mice per group. At 2 or 5 weeks after treatment 5 mice of each group were sacrificed their spleens removed and tested individually in a proliferation assay to C9VDJ peptide 5 μg/ml, as described in FIG. 4.

[2] = tested on: NOD mice; settings: references (3), (4); cited from earlier work

In the case of VLGGGCALLRCIPALDSLTPANED [p277], the “Anti-C9 response (proliferation to C9VDJ peptide 5 μg/ml)” value [1] is given as “induces anti-C9 response” and the “Effect of vaccination on diabetes” value [2] is given as “prevent (3) or even reverse diabetes”.
